Data reported in patent publication EP3928779A1 (Chugai Seiyaku Kabushiki Kaisha, priority 2014, dated 2016).

These compounds were tested on rat small-intestinal brush border membrane vesicles (assay: Inhibitory effect on 33PO4 uptake into rat small-intestinal brush border membrane vesicles (rapid filtration method)). Details: 33PO4 uptake into rat small-intestinal BBMVs; test compound 1 µM; reacted for 60 seconds.
Format: biochemical
Summary of the method: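 Uptake of ^33PO4 was measured by rapid filtration and liquid scintillation counting of filter-retained vesicles, after quenching with ice-cold 110 mM NaCl/1 mM KH2PO4/10 mM HEPES pH 7.5. Vesicles were brush border membranes from the upper small intestine of female Wistar rats aged 4–5 weeks.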

Compound	Rate of uptake inhibition (%) (1 µM)
C[C@]12CCCN1N(Cc1cccc(Cl)c1)C(=O)C(C(=O)Nc1ccc(C(F)(F)F)cc1-c1ccc(C(F)(F)F)nc1)=C2O [Example 169]	73
C[C@]12CCCN1N(Cc1cccc(Cl)c1F)C(=O)C(C(=O)Nc1ccc(C(F)(F)F)cc1-c1ccc(C(F)(F)F)nc1)=C2O [Example 198]	75
CN1N(Cc2ccc(OCCN3CCN(CCCO)CC3)c(F)c2F)C(=O)C(C(=O)Nc2ccc(C(F)(F)F)cc2-c2cc(C(F)(F)F)ncn2)=C(O)C12CCC2 [Example 362]	17
Cc1cccc(CN2C(=O)C(C(=O)Nc3ccc(C(F)(F)F)cc3-c3ccc(C(F)(F)F)nc3)=C(O)[C@@]3(C)CCCN23)c1F [Example 205]	86
CSc1ccc(-c2cc(C(F)(F)F)ccc2NC(=O)C2=C(O)[C@@]3(C)CCCN3N(Cc3ccc(CCCCCCC(=O)O)c(F)c3F)C2=O)cn1 [Example 115, 7-[4-[[(4aR)-4-1-Hydroxy-4a-methyl-3-[[2-(6-methylsulfanylpyridin-3-yl)-4-(trifluoromethyl)phenyl]carbamoyl]-2-oxo-6,7-dihydro-5H-pyrrolo[1,2-b]pyridazin-1-yl]methyl]-2,3-difluorophenyl]heptanoate]	85
C[C@]12CCCN1N(Cc1ccc(F)c(F)c1)C(=O)C(C(=O)Nc1ccc(C(F)(F)F)cc1-c1cc(C(F)(F)F)ncn1)=C2O [Example 214]	91
CN1N(Cc2ccc(OCCN3CCC(N4CCOCC4)CC3)c(F)c2F)C(=O)C(C(=O)Nc2ccc(C(F)(F)F)cc2-c2cc(C(F)(F)F)ncn2)=C(O)C12CCC2 [Example 358]	34
Cc1c(C#N)ncnc1-c1cc(C(F)(F)F)ccc1NC(=O)C1=C(O)[C@@]2(C)CCCN2N(Cc2ccc(OCCN3CCOCC3)c(F)c2F)C1=O [Example 22, (4aR)-N-[2-(6-Cyano-5-methylpyrimidin-4-yl)-4-(trifluoromethyl)phenyl]-1-[[2,3-ditluoro-4-(2-morpholin-4-ylethoxy)phenyl]methyl]-4-hydroxy-4a-methyl-2-oxo-6,7-dihydro-5H-pyrrolo[1,2-b]pyridazine-3-carboxamide]	50
CN(CCO)CCOc1ccc(CN2C(=O)C(C(=O)Nc3ccc(C(F)(F)F)cc3-c3cc(C(F)(F)F)ncn3)=C(O)C3(CCCC3)N2C)c(F)c1F [Example 373]	27
C[C@]12CCCN1N(Cc1c(F)cccc1Cl)C(=O)C(C(=O)Nc1ccc(C(F)(F)F)cc1-c1cc(C(F)(F)F)ncn1)=C2O [Example 210]	71
C[C@]12CCCN1N(Cc1ccccc1F)C(=O)C(C(=O)Nc1ccc(C(F)(F)F)cc1-c1ccc(C(F)(F)F)nc1)=C2O [Example 200]	80
CN1N(Cc2ccc(OCCN3CCOCC3(C)C)c(F)c2F)C(=O)C(C(=O)Nc2ccc(C(F)(F)F)cc2-c2cc(C(F)(F)F)ncn2)=C(O)C12CCC2 [Example 341]	64
CN1N(Cc2ccc(OC(C)(C)CN3CCOCC3)c(F)c2F)C(=O)C(C(=O)Nc2ccc(C(F)(F)F)cc2-c2cc(C(F)(F)F)ncn2)=C(O)C12CCC2 [Example 407, 6-[[2,3-Difluoro-4-(2-methyl-1-morpholin-4-ylpropan-2-yl)oxyphenyl]methyl]-9-hydroxy-5-methyl-7-oxo-N-[4-(trifluoromethyl)-2-[6-(trifluoromethyl)pyrimidin-4-yl]phenyl]-5,6-diazaspiro[3.5]non-8-ene-8-carboxamide]	30
CN1N(Cc2ccc(OCCNC(CC(=O)O)CC(=O)O)c(F)c2F)C(=O)C(C(=O)Nc2ccc(C(F)(F)F)cc2-c2cc(C(F)(F)F)ncn2)=C(O)C12CCCC2 [Example 382, 3-[2-[2.3-Difluoro-4-[[10-hydroxy-6-methyl-8-oxo-9-[[4-(trifluoromethyl)-2-[6-(trifluoromethyl)pyrimidin-4-yl]phenyl]carbamoyl]-6,7-diazaspiro[4.5]dee-9-en-7-yl)methyl]phenoxy]ethylamino]pentanedioate]	21
C[C@]12CCCN1N(Cc1cccc(F)c1F)C(=O)C(C(=O)Nc1ccc(Br)cc1-c1ccc(Cl)nc1)=C2O [Example 122, (4aR)-N-[4-Bromo-2-(6-chloropyridin-3-yl)phenyl]-1-[(2,3-difluorophenyl)methyl]-4-hydroxy-4a-methyl-2-oxo-6,7-dihydro-5H-pyrrolo[1,2-b]pyridazine-3-carboxamide]	82
COCCN(C)CCOc1ccc(CN2C(=O)C(C(=O)Nc3ccc(C(F)(F)F)cc3-c3cc(C(F)(F)F)ncn3)=C(O)C3(CCC3)N2C)c(F)c1F [Example 13, 6-[[2,3-Difluoro-4-[2-[2-methoxyethyl(methyl)amino]ethoxy]phenyl]methyl]-9-hydroxy-5-methyl-7-oxo-N-[4-(trifluoromethyl)-2-[6-(trifluoromethyl)pyrimidin-4-yl]phenyl]-5,6-diazaspiro[3.5]non-8-ene-8-carboxamide]	58
COc1cccc(-c2cc(C(F)(F)F)ccc2NC(=O)C2=C(O)[C@@]3(C)CCCN3N(Cc3ccc(CCCOCCOCCOCCO)c(F)c3F)C2=O)c1OC [Example 142]	76

Compound	Rate of uptake inhibition (%) (1 µM)
CN1N(Cc2cccc(F)c2F)C(=O)C(C(=O)Nc2ccc(Br)c(C(F)(F)F)n2)=C(O)C12CCCC2 [Example 263]	66
C[C@]12CCCN1N(Cc1cccc(OC(F)(F)F)c1)C(=O)C(C(=O)Nc1ccc(C(F)(F)F)cc1-c1cc(C(F)(F)F)ncn1)=C2O [Example 189]	73
C[C@]12CCCN1N(Cc1c(F)cccc1F)C(=O)C(C(=O)Nc1ccc(C(F)(F)F)cc1-c1ccc(C(F)(F)F)nc1)=C2O [Example 203]	91
COCCN1CC(Oc2ccc(CN3C(=O)C(C(=O)Nc4ccc(C(F)(F)F)cc4-c4cc(C(F)(F)F)ncn4)=C(O)C4(CCC4)N3C)c(F)c2F)C1 [Example 406]	27
CN(CCOCCC(=O)N(C)C[C@H](O)[C@@H](O)[C@H](O)[C@H](O)CO)CCOc1ccc(CN2C(=O)C(C(=O)Nc3ccc(C(F)(F)F)cc3-c3cc(C(F)(F)F)ncn3)=C(O)C3(CCCC3)N2C)c(F)c1F [Example 425]	5
COc1cccc(-c2cc(C(F)(F)F)ccc2NC(=O)C2=C(O)[C@@]3(C)CCCN3N(Cc3ccc(C#CCCCO)c(F)c3F)C2=O)c1OC [Example 138]	93
(4aS)-1-[(2,3-Difluorophenyl)methyl]-6,6-difluoro-4-hydroxy-N-[5-methyl-2-(trifluoromethyl)furan-3-yl]-2-oxo-5,7-dihydro-4aH-pyrrolo[1,2-b]pyridazine-3-carboxamide [Example 5]	54
CN(CCOCCOCCOCCOCCOc1ccc(CN2C(=O)C(C(=O)Nc3ccc(C(F)(F)F)cc3-c3cc(C(F)(F)F)ncn3)=C(O)C3(CCCC3)N2C)c(F)c1F)C[C@@H](O)[C@H](O)[C@@H](O)[C@@H](O)CO [Example 421, 7-[[2,3-Difluoro-4-[2-[2-[2-[2-[2-[methyl-[(2R,3S,4S,5S)-2,3,4,5,6-pentahydroxyhexyl]amino]ethoxy]ethoxy]ethoxy]ethoxy]ethoxy]phenyl]methyl]-10-hydroxy-6-methyl-8-oxo-N-[4-(trifluoromethyl)-2-[6-(trifluoromethyl)pyrimidin-4-yl]phenyl]-6,7-diazaspiro[4.5]dec-9-ene-9-carboxamide]	24
CCCN(CCN(C)CCOC)c1ccc(CN2C(=O)C(C(=O)Nc3ccc(C(F)(F)F)cc3-c3cc(C(F)(F)F)ncn3)=C(O)C3(CCCC3)N2C)c(F)c1F [Example 444]	24
Cc1c(Cl)ncnc1-c1cc(C(F)(F)F)ccc1NC(=O)C1=C(O)[C@@]2(C)CCCN2N(Cc2cccc(F)c2F)C1=O [Example 69]	74
CN1N(Cc2cccc(F)c2F)C(=O)C(C(=O)Nc2cc(F)c(Br)c(F)c2)=C(O)C12CCC2 [Example 257]	71
Cc1ncc(-c2cc(C(F)(F)F)ccc2NC(=O)C2=C(O)[C@@]3(C)CCCN3N(Cc3cccc(F)c3F)C2=O)cc1C#N [Example 109, (4aR)-N-[2-(5-Cyano-6-methylpyridin-3-yl)-4-(trifluoromethyl)phenyl]-1-[(2,3-difluorophenyl)methyl]-4-hydroxy-4-methyl-2-oxo-6,7-dihydro-5H-pyrrolo[1.2-b]pyridazine-3-carboxamide]	52
CN1[C@@H](C(C)(C)C)C(O)=C(C(=O)Nc2ccc(Cl)cc2-c2cc(C(F)(F)F)ncn2)C(=O)N1Cc1ccc(OCCN2CCOCC2)c(F)c1F [Example 265, (3S)-3-tert-Butyl-N-[4-chloro-2-[6-(trinuoromethyl)pyrimidin-4-yl]phenyl]-1-[[2,3-difluoro-4-(2-morpholin-4-ylethoxy)phenyl]methyl]-4-hydroxy-2-methyl-6-oxo-3H-pyridazine-5-carboxamide]	52
CSc1ncc(-c2cc(C(F)(F)F)ccc2NC(=O)C2=C(O)[C@@]3(C)CCCN3N(Cc3ccc(C#CCCCCC(=O)O)c(F)c3F)C2=O)cn1 [Example 118]	81
Cc1c(C#N)ncnc1-c1cc(Cl)ccc1NC(=O)C1=C(O)[C@H](C(C)(C)C)N(C)N(Cc2ccc(OCCN3CCOCC3)c(F)c2F)C1=O [Example 274]	43
CN1N(Cc2ccc(OCCN3CCOCC3)c(F)c2F)C(=O)C(C(=O)Nc2ccc(C(F)(F)F)cc2-c2ncnc(C(F)(F)F)c2Cl)=C(O)C12CCC2 [Example 284]	46
